# System: skin
# Assay: Sensory assessment of 1 wt.-% 3-hydroxypropyl undecylenate in o/w emulsion versus placebo
# Assay type: in vivo, human
# Settings: 1 wt.-% in o/w emulsion vs placebo without active
# Experimental: Heat phase A and C separately up to 80° C. Disperse phase B in phase A. Add phase C to phase AB and emulsify using a HomoRex stirrer (3 min, […]). Add phase D and neutralize. Allow to cool by using a vane stirrer (10 min at 150 rpm, then 10 min at 100 rpm). Pre-dissolve 3-hydroxypropyl undecylenate with pentylene glycol and propylene glycol (phase E) and add to the emulsion by using a vane stirrer (10 min, 100 rpm). Sensory Assessment: Test design (for two samples; presented in random order) 100 μl of sample was applied on the forearm. Sample was distributed with index and middle finger in rotary movements for 20 seconds. Then the second sample is applied on the other forearm and again distributed. After 3 minutes the skin feel is evaluated. Question to the panellists: Which formulation (A or B) leaves the skin more soft and moisturized on a scale from 0-4? (Soft/moisture: 0=not at all; 4=very strong)
structure (smiles),measurement,value
C=CCCCCCCCCC(=O)OCCCO [3-hydroxypropyl undecylenate],Soft and moisturized skin feel versus placebo (in words),more soft and moisturized skin feel
